Experimental data as given in ChEMBL document CHEMBL5260810, “Inhibition of bromodomain-containing protein 9 for the prevention of epigenetically-defined drug resistance” (Bioorg Med Chem Lett, 2017).
The source made the active and inactive calls. The rule behind the calls is not given here.

Legend:
HEL = test: Cytotoxicity against human HEL cells measured after 3 days; format: functional, cell-based; settings: 72 h
NALM-6 = test: Cytotoxicity against human NALM-6 cells measured after 3 days; format: functional, cell-based; settings: NALM-6, 72 h
[1] = Cytotoxicity against human VP229 cells measured after 3 days; format: functional, cell-based; settings: VP229, 72 h
HepG2 = test: Cytotoxicity against human HepG2 cells measured after 3 days; format: functional, cell-based; settings: HepG2, 72 h
LP-1 = test: Cytotoxicity against human LP-1 cells measured after 3 days; format: functional, cell-based; settings: LP-1, 72 h
[2] = Cytotoxicity against human OV56 cells measured after 3 days; format: functional, cell-based; settings: OV56, 72 h
[3] = Lipophilicity, log D of the compound at pH 7.4; format: physicochemical; settings: buffer
[4] = Cytotoxicity against human HCC1623 cells measured after 3 days; format: functional, cell-based; settings: HCC1623, 72 h
[5] = Cytotoxicity against human CoCM-1 cells measured after 3 days; format: functional, cell-based; settings: CoCM-1, 72 h
[6] = Cytotoxicity against human NCE-G 130 cells measured after 3 days; format: functional, cell-based; settings: NCE-G 130, 72 h
[7] = Cytotoxicity against human NCE-G 121 cells measured after 3 days; format: functional, cell-based; settings: NCE-G 121, 72 h
MC116 = test: Cytotoxicity against human MC116 cells measured after 3 days; format: functional, cell-based; settings: MC116, 72 h
ZR-75-1 = test: Cytotoxicity against human ZR-75-1 cells measured after 8 days; format: functional, cell-based; settings: ZR-75-1, 192 h
PC-9 = test: Antiproliferative activity against human PC-9 cells assessed as reduction in colony formation at 1 uM supplemented with fresh medium containing compound every 3 days by MTT staining based assay; format: functional, cell-based; settings: time 9.0 day
HCC70 = test: Cytotoxicity against human HCC70 cells measured after 3 days; format: functional, cell-based; settings: HCC70, 72 h
NCI-H1734 = test: Cytotoxicity against human NCI-H1734 cells measured after 3 days; format: functional, cell-based; settings: NCI-H1734, 72 h
Calu-6 = test: Cytotoxicity against human Calu-6 cells after 8 days; format: functional, cell-based; settings: Calu-6, 192 h
769-P = test: Cytotoxicity against human 769-P cells measured after 3 days; format: functional, cell-based; settings: 72 h
RL = test: Cytotoxicity against human RL cells measured after 3 days; format: functional, cell-based; settings: 72 h
HCC1954 = test: Antiproliferative activity against human HCC1954 cells assessed as reduction in colony formation at 1 uM supplemented with fresh medium containing compound every 3 days by MTT staining based assay; format: functional, cell-based; settings: time 9.0 day
[8] = Cytotoxicity against human NCE-G 84 cells measured after 3 days; format: functional, cell-based; settings: NCE-G 84, 72 h
[9] = Cytotoxicity against human COV504 cells measured after 3 days; format: functional, cell-based; settings: COV504, 72 h
SW1573 = test: Cytotoxicity against human SW1573 cells measured after 3 days; format: functional, cell-based; settings: SW1573, 72 h
LN-229 = test: Cytotoxicity against human LN-229 cells measured after 3 days; format: functional, cell-based; settings: LN-229, 72 h
T47D = test: Cytotoxicity against human T47D cells measured after 3 days; format: functional, cell-based; settings: 72 h
OCI-LY19 = test: Cytotoxicity against human OCILY19 cells measured after 3 days; format: functional, cell-based; settings: OCI-LY19, 72 h
[10] = Cytotoxicity against human RKOE6 cells measured after 3 days; format: functional, cell-based; settings: RKOE6, 72 h
[11] = Cytotoxicity against human HCC15 cells after 8 days; format: functional, cell-based; settings: HCC15, 192 h
A2780 = test: Cytotoxicity against human A2780 cells measured after 3 days; format: functional, cell-based; settings: A2780, 72 h
TYK-nu = test: Cytotoxicity against human TYK-nu cells measured after 3 days; format: functional, cell-based; settings: 72 h
SK-OV-3 = test: Cytotoxicity against human SK-OV-3 cells measured after 3 days; format: functional, cell-based; settings: SK-OV-3, 72 h
[12] = Cytotoxicity against human HCC89 cells measured after 3 days; format: functional, cell-based; settings: HCC89, 72 h
[13] = Cytotoxicity against human NCE-G 140 cells measured after 3 days; format: functional, cell-based; settings: NCE-G 140, 72 h
Ramos = test: Cytotoxicity against human Ramos cells measured after 3 days; format: functional, cell-based; settings: 72 h
MX1 = test: Cytotoxicity against human MX1 cells measured after 3 days; format: functional, cell-based; settings: MX1, 72 h
DU-4475 = test: Cytotoxicity against human DU-4475 cells after 8 days; format: functional, cell-based; settings: DU-4475, 192 h
BT-20 = test: Cytotoxicity against human BT-20 cells measured after 3 days; format: functional, cell-based; settings: BT-20, 72 h
ACHN = test: Cytotoxicity against human ACHN cells measured after 3 days; format: functional, cell-based; settings: 72 h
HBL-100 = test: Cytotoxicity against human HBL-100 cells measured after 3 days; format: functional, cell-based; settings: HBL-100, 72 h
A-375 = test: Antiproliferative activity against human A-375 cells assessed as reduction in colony formation up to 20 uM supplemented with fresh medium containing compound every 3 days for 9 days by MTT staining based clonogenic assay; format: functional, cell-based; settings: time 9.0 day
NCI-H23 = test: Antiproliferative activity against human NCI-H23 cells assessed as reduction in colony formation up to 20 uM supplemented with fresh medium containing compound every 3 days for 9 days by MTT staining based clonogenic assay; format: functional, cell-based; settings: time 9.0 day
MDA-MB-231 = test: Antiproliferative activity against human MDA-MB-231 cells assessed as reduction in colony formation upto 20 uM supplemented with fresh medium containing compound every 3 days for 9 days by MTT staining based clonogenic assay; format: functional, cell-based; settings: time 9.0 day
[14] = target: T1, Bromodomain-containing protein 9 (Homo sapiens) (UniProt Q9H8M2); test: Inhibition of BRD9 in human PC-9 cells assessed as reduction in ALDH1A1 gene expression at 5 uM preincubated with erlotinib for 8 days followed by compound addition and measured after 24 hrs by RNA sequencing analysis; format: cell-based
T1 sequence (whole entry): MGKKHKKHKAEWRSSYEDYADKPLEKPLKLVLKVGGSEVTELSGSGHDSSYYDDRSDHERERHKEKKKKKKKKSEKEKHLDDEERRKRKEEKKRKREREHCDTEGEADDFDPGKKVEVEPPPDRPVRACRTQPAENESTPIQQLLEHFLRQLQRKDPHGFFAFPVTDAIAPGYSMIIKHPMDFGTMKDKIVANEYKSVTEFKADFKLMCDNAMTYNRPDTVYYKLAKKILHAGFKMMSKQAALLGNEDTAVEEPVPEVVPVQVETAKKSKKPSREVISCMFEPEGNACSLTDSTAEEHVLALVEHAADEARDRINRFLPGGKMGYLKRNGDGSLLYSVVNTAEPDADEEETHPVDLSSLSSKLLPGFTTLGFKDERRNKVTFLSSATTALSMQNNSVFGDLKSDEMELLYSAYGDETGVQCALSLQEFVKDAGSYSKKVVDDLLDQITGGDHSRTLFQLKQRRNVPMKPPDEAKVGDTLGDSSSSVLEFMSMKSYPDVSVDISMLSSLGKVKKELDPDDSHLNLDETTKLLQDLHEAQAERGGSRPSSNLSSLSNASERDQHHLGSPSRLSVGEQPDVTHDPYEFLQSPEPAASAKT

Kasumi 1 = test: Cytotoxicity against human Kasumi 1 cells measured after 8 days; format: functional, cell-based; settings: Kasumi 1, 192 h
BT-474 = test: Antiproliferative activity against human BT-474 cells assessed as reduction in colony formation up to 20 uM supplemented with fresh medium containing compound every 3 days for 9 days by MTT staining based clonogenic assay; format: functional, cell-based; settings: time 9.0 day

## C/C=C/Cn1cc(-c2cc(OC)c(C(=O)N3CCOCC3)cc2OC)c2cc(C)[nH]c2c1=O
HEL
  IC50: 5 µM
NALM-6
  IC50: 5 µM
[1]
  IC50: 5 µM
HepG2
  IC50: 5 µM
LP-1
  IC50: 5 µM
[2]
  IC50: 5 µM
[3]
  logD: 2.4
[4]
  IC50: 5 µM
[5]
  IC50: 5 µM
[6]
  IC50: 5 µM
[7]
  IC50: 5 µM
MC116
  IC50: 5 µM
ZR-75-1
  IC50: 2 µM
PC-9
  Activity: inactive
HCC70
  IC50: 5 µM
NCI-H1734
  IC50: 5 µM
Calu-6
  IC50: 2 µM
769-P
  IC50: 5 µM
RL
  IC50: 5 µM
HCC1954
  Activity: inactive
[8]
  IC50: 5 µM
[9]
  IC50: 5 µM
SW1573
  IC50: 5 µM
LN-229
  IC50: 5 µM
T47D
  IC50: 5 µM
OCI-LY19
  IC50: 5 µM
[10]
  IC50: 5 µM
[11]
  IC50: 2 µM
A2780
  IC50: 5 µM
TYK-nu
  IC50: 5 µM
SK-OV-3
  IC50: 5 µM
[12]
  IC50: 5 µM
[13]
  IC50: 5 µM
Ramos
  IC50: 5 µM
MX1
  IC50: 5 µM
DU-4475
  IC50: 2 µM
BT-20
  IC50: 5 µM
ACHN
  IC50: 5 µM
HBL-100
  IC50: 5 µM

## C/C=C/Cn1cc(-c2ccc(C(C)(C)O)cc2OC)c2cc[nH]c2c1=O
A-375
  Activity: inactive
NCI-H23
  Activity: inactive
MDA-MB-231
  Activity: inactive
[14]
  inhibition: Active
Kasumi 1
  IC50: 3.63 µM
BT-474
  Activity: inactive
